# Experimental data reported in patent publication US12030888B2, “Himastatin derivatives, and processes of preparation thereof, and uses thereof” (priority 2021, dated 2024).
# Like-named read-outs stand apart in the source and are kept apart here. Numbered stars: 1 amine (or outer) side, 2 acyl side, 3 side chain; on linkers, the order of the positions; unused ones are H or OH. Square brackets hold non-standard residues; d marks the D form. Peptide text beside a SMILES is read from it. X1 = O=C([C@@H]1C[C@@]2(O)c3ccccc3N[C@H]2N1[*:1])[*:2]; X2 = O=C([C@H]1C[C@]2(O)c3ccccc3N[C@@H]2N1[*:1])[*:2]; X3 = O=C([C@@H]1C[C@H](O)CNN1[*:1])[*:2]; dPiz(5R-OH) = O=C(O)[C@H]1C[C@@H](O)CNN1; Lys(N3) = [N-]=[N+]=NCCCC[C@H](N)C(=O)O; NMeV = CN[C@H](C(=O)O)C(C)C; dHiv = CC(C)[C@@H](O)C(=O)O; Hiv = CC(C)[C@H](O)C(=O)O
# Legend:
# [1] = test system: Gram-positive bacteria; type: cell-based; conditions: relative to (−)-himastatin (1) where a derivative
# Method: (§1) Bacillus subtilis subsp. spizizenii (ATCC 6633) and Streptomyces himastatinicus (ATCC 53653) were obtained from the American Type Culture Collection (ATCC). Methicillin-resistant and methicillin-susceptible Staphylococcus aureus (Newman), and vancomycin-resistant (V583) and vancomycin-susceptible (T7) Enterococcus faecalis were obtained from the lab of Dr. Roby P. Bhattacharyya (Massachusetts General Hospital).^6 B. subtilis was grown in brain-heart infusion (BHI) medium at 37° C., S. himastatinicus was grown in tryptone-yeast extract broth (ISP medium 2) at 28° C., E. faecalis was grown in Todd-Hewitt broth, and all other organisms were grown in lysogeny broth (LB) medium at 37° C.
# (§2) Minimum inhibitory concentration (MIC) was determined using the broth microdilution method. 20-fold stocks of compound in DMSO were diluted 10-fold in MHB medium and 100 μL of each were added to the first well of a 96-well plate. 50 μL of the first well was then serially diluted through 50 μL MHB medium in wells 2-11. To prepare the bacterial culture, an overnight culture was diluted in MHB until the turbidity matched that of McFarland standard 0.5. Then, the culture was diluted 1:100 and added to wells 1-11, resulting in 2-fold dilutions of antibiotic beginning at 64 μg/mL and a final inoculum of 5×10^5 cfu/mL. 100 μL of MHB medium was added to well 12 as a sterility control, and a row containing no antibiotic was used as a growth control. The plate was incubated at the organism's respective growth temperature overnight (B. subtilis) or 72 h (S. himastatinicus) and the MIC was determined using OD600.
# (§3) Minimum inhibitory concentration (MIC) was determined using the broth microdilution method.^7 20-fold (1.28 mg/mL) stocks of compound in dimethylsulfoxide, stored as frozen (−80° C.) 30-μL aliquots, were diluted 10-fold in Mueller Hinton broth (MHB) and a 100-μL sample of each was added to the first well of a 96-well plate. A 50-μL sample of the first well was then serially diluted two-fold through 50-μL NMB medium in wells 2-11. A bacterial culture was prepared from a frozen (−80° C.) stock in the organism's respective growth medium and grown overnight. The culture was then diluted in MHB until the turbidity matched that of McFarland standard 0.5 by measuring the optical density at 600 nm (1×10^8 cfu/mL). Then, the culture was diluted 1:100 and a 50-μL aliquot was added to wells 1-11, resulting in 2-fold dilutions of antibiotic from 64 μg/mL down to 0.0625 μg/mL and a final inoculum of 5×10^5 cfu/mL. A 100-μL aliquot of MHB medium was added to well 12 as a sterility control, and a row containing no antibiotic was used as a growth control. The plate was incubated at the organism's respective growth temperature overnight or 72 h (S. himastatinicus). The MIC was determined by observing the well density by eye and, with the exception of S. himastatinicus which grows in solid colonies in media, was confirmed by measuring the optical density of each well at 600 nm. At least two assays were conducted for each organism on identical lots of compound. No degradation of compound stocks in dimethylsulfoxide was observed by LC-MS analysis after being subjected to multiple freeze-thaw cycles.
# [2] = test system: Streptomyces himastatinicus (ATCC 53653); type: cell-based; conditions: ATCC 53653, 72 h
# Method: as §1, §2, §3
# [3] = test system: Methicillin-Resistant Staphylococcus aureus; type: cell-based; conditions: Methicillin-Resistant
# Method: as §1, §2, §3
# [4] = test system: Vancomycin-Resistant Enterococcus faecalis (V583); type: cell-based; conditions: Vancomycin-Resistant (V583)
# Method: as §1, §2, §3
# [5] = test system: Bacillus subtilis (ATCC 6633); type: cell-based; conditions: for MIC (μg/mL) B. subtilis: ATCC 6633; for MIC in Bacillus subtilis: text and figure legend
# Method: as §1, §2, §3
# [6] = test system: Methicillin-Sensitive S. aureus (Newman); type: cell-based, Staphylococcus aureus; conditions: Newman
# Method: as §1, §2, §3
# [7] = test system: Vancomycin-Sensitive E. faecalis (T7); type: cell-based, Enterococcus faecalis; conditions: Vancomycin-Sensitive (T7)
# Method: as §1, §2, §3
structure (smiles),measurement,setting,value
"CC(C)C[C@@H]1NC(=O)[C@H]2C[C@@H](O)CNN2C(=O)[C@H](C(C)C)OC(=O)[C@@H](C(C)C)NC(=O)[C@@H]2C[C@@]3(O)c4ccccc4N[C@H]3N2C(=O)[C@@H]([C@H](C)O)NC1=O [(+)-6, Himastatin Monomer, reference compound] (cyclo([Hiv][dPiz(5R-OH)]L[dT][X1][dV]))",antibiotic activity (in words),[1],inactive
same,MIC (μg/mL) S. himastatinicus,[2],>64 µg/mL
same,MIC (μg/mL) MRSA,[3],>64 µg/mL
same,MIC (μg/mL) VRE faecalis,[4],>64 µg/mL
same,MIC (μg/mL) B. subtilis,[5],>64 µg/mL
same,MIC (μg/mL) MSSA,[6],>64 µg/mL
same,MIC (μg/mL) VSE faecalis,[7],>64 µg/mL
"CC(C)C[C@@H]1NC(=O)[C@H]2C[C@@H](O)CNN2C(=O)[C@H](C(C)C)NC(=O)[C@@H](C(C)C)NC(=O)[C@@H]2C[C@@]3(O)c4ccccc4N[C@H]3N2C(=O)[C@@H]([C@H](C)O)NC1=O [(+)-25, Cyclic Hexapeptide] (cyclo(L[dT][X1][dV]V[dPiz(5R-OH)]))",MIC (μg/mL) S. himastatinicus,[2],>64 µg/mL
same,MIC (μg/mL) MRSA,[3],>64 µg/mL
same,MIC (μg/mL) VRE faecalis,[4],>64 µg/mL
same,MIC (μg/mL) B. subtilis,[5],>64 µg/mL
same,MIC (μg/mL) MSSA,[6],>64 µg/mL
same,MIC (μg/mL) VSE faecalis,[7],>64 µg/mL
"CC(C)C[C@@H]1NC(=O)[C@H]2C[C@@H](O)CNN2C(=O)[C@H](C(C)C)N(C)C(=O)[C@@H](C(C)C)NC(=O)[C@@H]2C[C@@]3(O)c4ccccc4N[C@H]3N2C(=O)[C@@H]([C@H](C)O)NC1=O [(+)-27, N-Methyl Cyclic Hexapeptide] (cyclo(L[dT][X1][dV][NMeV][dPiz(5R-OH)]))",MIC (μg/mL) S. himastatinicus,[2],>64 µg/mL
same,MIC (μg/mL) MRSA,[3],>64 µg/mL
same,MIC (μg/mL) VRE faecalis,[4],>64 µg/mL
same,MIC (μg/mL) B. subtilis,[5],>64 µg/mL
same,MIC (μg/mL) MSSA,[6],>64 µg/mL
same,MIC (μg/mL) VSE faecalis,[7],>64 µg/mL
"CC(C)C[C@@H]1NC(=O)[C@H]2CCCN2C(=O)[C@H](C(C)C)OC(=O)[C@@H](C(C)C)NC(=O)[C@@H]2C[C@@]3(O)c4ccccc4N[C@H]3N2C(=O)[C@@H]([C@H](C)O)NC1=O [(+)-29, Proline Cyclic Depsihexapeptide] (cyclo([Hiv][dP]L[dT][X1][dV]))",MIC (μg/mL) S. himastatinicus,[2],>64 µg/mL
same,MIC (μg/mL) MRSA,[3],>64 µg/mL
same,MIC (μg/mL) VRE faecalis,[4],>64 µg/mL
same,MIC (μg/mL) B. subtilis,[5],>64 µg/mL
same,MIC (μg/mL) MSSA,[6],>64 µg/mL
same,MIC (μg/mL) VSE faecalis,[7],>64 µg/mL
"CC(C)[C@@H]1OC(=O)[C@@H](C(C)C)NC(=O)[C@@H]2C[C@@]3(O)c4ccccc4N[C@H]3N2C(=O)[C@@H]([C@H](C)O)NC(=O)[C@H](CCCCN=[N+]=[N-])NC(=O)[C@H]2C[C@@H](O)CNN2C1=O [(+)-31, Azido Cyclic Depsihexapeptide] (cyclo([Hiv][dPiz(5R-OH)][Lys(N3)][dT][X1][dV]))",MIC (μg/mL) S. himastatinicus,[2],>64 µg/mL
same,MIC (μg/mL) MRSA,[3],>64 µg/mL
same,MIC (μg/mL) VRE faecalis,[4],>64 µg/mL
same,MIC (μg/mL) B. subtilis,[5],>64 µg/mL
same,MIC (μg/mL) MSSA,[6],>64 µg/mL
same,MIC (μg/mL) VSE faecalis,[7],>64 µg/mL
"CC(C)C[C@H]1NC(=O)[C@@H]2C[C@H](O)CNN2C(=O)[C@@H](C(C)C)OC(=O)[C@H](C(C)C)NC(=O)[C@H]2C[C@]3(O)c4ccccc4N[C@@H]3N2C(=O)[C@H]([C@@H](C)O)NC1=O [(−)-6, ent-himastatin monomer] (cyclo([dL]T[X2]V[dHiv][X3]))",MIC (μg/mL) S. himastatinicus,[2],8 µg/mL
same,MIC (μg/mL) MRSA,[3],>64 µg/mL
same,MIC (μg/mL) VRE faecalis,[4],>64 µg/mL
same,MIC (μg/mL) B. subtilis,[5],>64 µg/mL
same,MIC (μg/mL) MSSA,[6],>64 µg/mL
same,MIC (μg/mL) VSE faecalis,[7],>64 µg/mL
"CC(C)C[C@@H]1NC(=O)[C@H]2C[C@@H](O)CNN2C(=O)[C@H](C(C)C)OC(=O)[C@@H](C(C)C)NC(=O)[C@@H]2C[C@@]3(O)c4cc(-c5ccc6c(c5)[C@]5(O)C[C@H]7C(=O)N[C@H](C(C)C)C(=O)O[C@@H](C(C)C)C(=O)N8NC[C@H](O)C[C@@H]8C(=O)N[C@@H](CCCCNC(=O)c8ccc9c(c8)C(=O)OC98c9ccc(N(C)C)cc9Oc9cc(N(C)C)ccc98)C(=O)N[C@H]([C@H](C)O)C(=O)N7[C@@H]5N6)ccc4N[C@H]3N2C(=O)[C@@H]([C@H](C)O)NC1=O [(−)-25, TAMRA Himastatin Heterodimer]",MIC in Bacillus subtilis,[5],6 µg/mL
same,MIC in Bacillus subtilis,[5]; listed as TAMRA-himastatin,~8 µg/mL
"CC(C)C[C@@H]1NC(=O)[C@H]2C[C@@H](O)CNN2C(=O)[C@H](C(C)C)NC(=O)[C@@H](C(C)C)NC(=O)[C@@H]2C[C@@]3(O)c4cc(-c5ccc6c(c5)[C@]5(O)C[C@H]7C(=O)N[C@H](C(C)C)C(=O)N[C@@H](C(C)C)C(=O)N8NC[C@H](O)C[C@@H]8C(=O)N[C@@H](CC(C)C)C(=O)N[C@H]([C@H](C)O)C(=O)N7[C@@H]5N6)ccc4N[C@H]3N2C(=O)[C@@H]([C@H](C)O)NC1=O [(−)-26, Himastatin Lactam Derivative]",antibiotic activity (in words),[1],modest reduction in antibiotic activity
same,antibiotic activity (in words),[1]; listed as (−)-15,decreasing antibiotic activity
same,MIC (μg/mL) S. himastatinicus,[2],>64 µg/mL
same,MIC (μg/mL) MRSA,[3],32 µg/mL
same,MIC (μg/mL) VRE faecalis,[4],32 µg/mL
same,MIC (μg/mL) B. subtilis,[5],8 µg/mL
same,MIC (μg/mL) MSSA,[6],16 µg/mL
same,MIC (μg/mL) VSE faecalis,[7],16 µg/mL
"CC(C)C[C@@H]1NC(=O)[C@H]2C[C@@H](O)CNN2C(=O)[C@H](C(C)C)N(C)C(=O)[C@@H](C(C)C)NC(=O)[C@@H]2C[C@@]3(O)c4cc(-c5ccc6c(c5)[C@]5(O)C[C@H]7C(=O)N[C@H](C(C)C)C(=O)N(C)[C@@H](C(C)C)C(=O)N8NC[C@H](O)C[C@@H]8C(=O)N[C@@H](CC(C)C)C(=O)N[C@H]([C@H](C)O)C(=O)N7[C@@H]5N6)ccc4N[C@H]3N2C(=O)[C@@H]([C@H](C)O)NC1=O [(−)-28, Himastatin N-Methyl Lactam Derivative]",antibiotic activity (in words),[1],decreasing antibiotic activity
same,MIC (μg/mL) S. himastatinicus,[2],>64 µg/mL
same,MIC (μg/mL) MRSA,[3],>64 µg/mL
same,MIC (μg/mL) VRE faecalis,[4],>64 µg/mL
same,MIC (μg/mL) B. subtilis,[5],>64 µg/mL
same,MIC (μg/mL) MSSA,[6],>64 µg/mL
same,MIC (μg/mL) VSE faecalis,[7],>64 µg/mL
"CC(C)C[C@@H]1NC(=O)[C@H]2CCCN2C(=O)[C@H](C(C)C)OC(=O)[C@@H](C(C)C)NC(=O)[C@@H]2C[C@@]3(O)c4cc(-c5ccc6c(c5)[C@]5(O)C[C@H]7C(=O)N[C@H](C(C)C)C(=O)O[C@@H](C(C)C)C(=O)N8CCC[C@@H]8C(=O)N[C@@H](CC(C)C)C(=O)N[C@H]([C@H](C)O)C(=O)N7[C@@H]5N6)ccc4N[C@H]3N2C(=O)[C@@H]([C@H](C)O)NC1=O [(−)-30, Himastatin Proline Derivative]",antibiotic activity (in words),[1],complete abolishment of antibiotic activity
same,antibiotic activity (in words),[1]; listed as (−)-19,antibiotic activity was completely abolished
same,MIC (μg/mL) S. himastatinicus,[2],>64 µg/mL
same,MIC (μg/mL) MRSA,[3],>64 µg/mL
same,MIC (μg/mL) VRE faecalis,[4],>64 µg/mL
same,MIC (μg/mL) B. subtilis,[5],>64 µg/mL
same,MIC (μg/mL) MSSA,[6],>64 µg/mL
same,MIC (μg/mL) VSE faecalis,[7],>64 µg/mL
